Data set [1] addresses T1, MBP-Nef-μ1^CTD (UniProt P03406+P35585).
T1 construct: fusing HIV-1 Nef (59–206, NL4.3) to the C terminal domain of μ1 subunit of AP1; to the C terminal domain of μ1 subunit of AP1 via a flexible linker of 20 amino acids; 6xHis (C); made in house; host or cells: Escherichia coli
T1 sequence (P03406 59-206 limits assumed): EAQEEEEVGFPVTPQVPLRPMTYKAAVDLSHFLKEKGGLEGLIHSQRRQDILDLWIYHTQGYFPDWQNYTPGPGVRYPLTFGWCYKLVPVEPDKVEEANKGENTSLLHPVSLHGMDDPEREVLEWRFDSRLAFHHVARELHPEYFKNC
T1 sequence (P35585 168-421 limits assumed): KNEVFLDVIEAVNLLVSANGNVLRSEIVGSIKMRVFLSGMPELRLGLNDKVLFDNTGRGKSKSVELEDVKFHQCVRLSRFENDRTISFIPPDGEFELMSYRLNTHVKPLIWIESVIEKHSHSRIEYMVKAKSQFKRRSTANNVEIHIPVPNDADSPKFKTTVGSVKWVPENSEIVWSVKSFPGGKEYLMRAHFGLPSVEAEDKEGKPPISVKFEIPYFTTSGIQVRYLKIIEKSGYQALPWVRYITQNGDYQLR
In kind it is binding, HIV-1 (Nef 59–206, NL4.3). Particulars: 300 μM, result in words; for effect on FP signal: 30 μM MBP-Nef-μ1^CTD, 50 nM TMR-enhanced-MHC-ICD, room temperature; for effect on FP signal / noise in the assay: final dimethylsulfoxide 3%; for background of the assay: not shown.

Data set [2] has as its target T1, MBP-Nef-μ1^CTD. As to the kind of experiment: Fluorescence polarization binding assay of TMR-labelled MHC-ICD probes with the Nef-μ1^CTD fusion. The arrangement: species or system HIV-1 (Nef 59–206, NL4.3). Particulars: 50 nM probe.
Protocol: The assay volume was miniaturized and kept at 15 μl for compatibility with HTS.
Purified MBP-Nef-μ1^CTD was buffer exchanged into the assay buffer (50 mM Tris, 150 mM NaCl, 0.5 mM DTT, 0.01% Triton X-100, pH 8.0). A stock protein solution of 120 μM Nef-μ1^CTD was then prepared and was subsequently used to create different dilutions. Assays were carried out in Corning 384-well black microplates (3820). In each well, 50 nM TMR-labeled MHC-ICD peptide was mixed with MBP-Nef-μ1^CTD at varied concentrations in a total volume of 15 μl. The plate was incubated for 1∼2 h at room temperature with minimal exposure to light. FP was then measured using the EnVision plate reader (PerkinElmer) with excitation at 535 nm and emission at 595 nm. Experiments were done in triplicates. Data was fitted to nonlinear regression and plotted as a function of protein concentration in a logarithmic scale using OriginLab.
The adjusted data was then fitted to nonlinear regression for one-site binding using the following equation: Y = Bmax∗X/(KD + X) (Bmax: maximum specific binding in the same units as Y).
Data set [3] is described as follows: Stability of the probes on the bench. Particulars: room temperature.
Data set [4] concerns the target T1, MBP-Nef-μ1^CTD. As to the kind of experiment: Competition of TMR-enhanced-MHC-ICD by unlabeled enhanced-MHC-ICD peptide (FP). The data set is classed as binding, HIV-1 (Nef 59–206, NL4.3). Particulars: room temperature, result in words. The text has this: We next investigated whether our assay is sensitive to competitive inhibition. Here, an unlabeled, modified MHC-ICD peptide was used as the competitor. The sequence of this competitor peptide is different from the authentic sequence of MHC-ICD in the following ways. […] Second, to improve the solubility of the competitor peptide, we introduced three additional mutations in the MHC-ICD sequence: Q322E, G325S, and S326D. According to the previous structure, these mutations should not interfere with Nef-μ1^CTD binding but should increase the peptide’s hydrophilicity.
The Nef-μ1^CTD fusion was constructed by fusing HIV-1 Nef (59–206, NL4.3) to the C terminal domain of μ1 subunit of AP1 via a flexible linker of 20 amino acids. Gene encoding the above Nef-μ1^CTD fusion was cloned into a modified pMAT9 expression vector with a 6xHis tag introduced at the C-terminus of the fusion protein. Escherichia coli cells transformed with the plasmid were grown at 37 °C till A600 reached 0.8. Protein expression was then induced with 0.1 mM IPTG and continued at 16 °C overnight. Cells were then lysed using sonication. The protein of interest was purified sequentially through a Ni-NTA affinity column, a MBP affinity column, a HiTrap Q anion exchange column, and finally a Superdex 200 size exclusion column.
For competition using unlabeled enhanced-MHC-ICD peptide, a stock solution of 1.2 mM unlabeled enhanced-MHC-ICD peptide was first prepared. The stock solution was then serial-diluted (2-fold each) 10 times. […] The plate was incubated at room temperature and read at different time points. FP values were recorded. All experiments were done in triplicates.

Data set [5] can be described thus: Precipitation/solubility of competitor peptide observed during experiments. In kind it is physicochemical. Particulars: seen during experiments; stock solution 1.2 mM; result in words.
For another data set, the target named is TMR-MHC-ICD. Put plainly: fluorescence polarisation. In general terms: Fluorescence polarisation rises when a labelled molecule tumbles more slowly, as on binding a larger partner.

Here are results for seven molecules from paper PMC11325787, “A fluorescence polarization assay for high-throughput screening of inhibitors against HIV-1 Nef-mediated MHC-I downregulation” (The Journal of Biological Chemistry, 2024).

Peptide text beside a SMILES is read from it. * marks the point of attachment. X1 = CN(C)c1ccc2c(-c3ccc(C(=O)*)cc3C(=O)[O-])c3ccc(=[N+](C)C)cc-3oc2c1; 5TAMRA = CN(C)c1ccc2c(c1)Oc1cc(N(C)C)ccc1C21OC(=O)c2cc(C(=O)*)ccc21

Turning to `OC[C@H]1O[C@H](O[C@H]2[C@H](O)[C@@H](O)C(O)O[C@@H]2CO)[C@H](O)[C@@H](O)[C@@H]1O` (mixture of isomers) [maltose], on MBP-Nef-μ1^CTD [1], the “effect on FP signal” value is on record as “did not lead to any meaningful decrease of the FP signal”, the “noise in the assay” value is listed as “did not cause noise” and the “background of the assay” value was “no fluctuation at all”.

The Kd is a measure of binding affinity in units of concentration. Turning to `C[C@H](NC(=O)[C@H](C)NC(=O)[C@H](CCC(N)=O)NC(=O)[C@H](CO)NC(=O)[C@H](Cc1ccc(O)cc1)NC(=O)[C@H](CO)NC(=O)c1ccc(-c2c3ccc(=[N+](C)C)cc-3oc3cc(N(C)C)ccc23)c(C(=O)[O-])c1)C(=O)NCC(=O)N[C@@H](CO)C(=O)N[C@@H](CC(=O)O)C(=O)N[C@@H](CO)C(=O)N[C@@H](C)C(=O)N[C@@H](CCC(N)=O)C(=O)O` [TMR-MHC-ICD] (X1-SYSQAAGSDSAQ-OH; N-terminus and C-terminus assumed), on MBP-Nef-μ1^CTD [2] (FP, MBP-Nef-μ1^CTD varied, 15 μl, 384-well, 50 mM Tris, 150 mM NaCl, 0.5 mM DTT, 0.01% Triton X-100, pH 8.0, 1∼2 h, room temperature, ex 535 nm, em 595 nm, triplicates, TMR-mutant-MHC-ICD signal subtracted, one-site binding fit, read-out: KD (dissociation constant)), the Kd is 44.1 µM. Further, the “signal window (difference between probe and TMR-mutant-MHC-ICD curves)” value on MBP-Nef-μ1^CTD [2] (low Nef-μ1^CTD concentrations, result in words) is reported as “very modest”. The stability of probe entry in data set [3] was “at least 20 h”.

Consider `CC(C)C[C@H](NC(=O)[C@H](CCC(N)=O)NC(=O)[C@H](CO)NC(=O)[C@H](Cc1ccc(O)cc1)NC(=O)[C@H](CO)NC(=O)c1ccc2c(c1)C(=O)OC21c2ccc(N(C)C)cc2Oc2cc(N(C)C)ccc21)C(=O)N[C@@H](C)C(=O)NCC(=O)N[C@@H](CO)C(=O)N[C@@H](CC(=O)O)C(=O)N[C@@H](CO)C(=O)N[C@@H](C)C(=O)N[C@@H](CCC(N)=O)C(=O)O` [TMR-enhanced-MHC-ICD] (5TAMRA-SYSQLAGSDSAQ-OH), for which the stability of probe result in data set [3] was “at least 20 h”.

As to `O=C(N[C@H](CO)[C@H](O)c1ccc([N+](=O)[O-])cc1)C(Cl)Cl` [chloramphenicol], on MBP-Nef-μ1^CTD [1], the “effect on FP signal” value is reported as “did not lead to any meaningful decrease of the FP signal”, the “noise in the assay” value is recorded as “did not cause noise” and the “background of the assay” value is reported as “no fluctuation at all”.

As for `CC(C)C[C@H](NC(=O)[C@H](CCC(=O)O)NC(=O)[C@H](CO)NC(=O)[C@H](Cc1ccc(O)cc1)NC(=O)[C@@H](N)CO)C(=O)N[C@@H](C)C(=O)N[C@@H](CO)C(=O)N[C@@H](CC(=O)O)C(=O)N[C@@H](CC(=O)O)C(=O)N[C@@H](CO)C(=O)N[C@@H](C)C(=O)N[C@@H](CCC(N)=O)C(=O)O` [unlabeled enhanced MHC-ICD peptide] (H-SYSELASDDSAQ-OH; N-terminus and C-terminus assumed), at MBP-Nef-μ1^CTD [4] (30 μM MBP-Nef-μ1^CTD, 50 nM TMR-enhanced-MHC-ICD, varied competitor, triplicates), the “effect on FP signal (displacement of TMR-enhanced-MHC-ICD probe)” value was “dose-dependent decrease of the FP signal”. Also, the “competition of the fluorescence-labeled probe after 1-h incubation” value at MBP-Nef-μ1^CTD [4] (1-h incubation, three independent samples, one-way ANOVA p < 0.0001) was “successfully observed”. Further, the “competition signals after 4 h” value on MBP-Nef-μ1^CTD [4] (4 h, three independent samples, longer incubation led to a gradual decrease of the FP signal (not shown)) is given as “remained stable”. Moreover, the precipitation result in data set [5] is on record as “sometimes forms precipitates”.

Consider “MBP-Nef-μ1^CTD fusion protein (from UniProt P03406;P35585)”, for which the Kd with TMR-MHC-ICD is 44.1 µM.

On to TMR-SDSQAAGSRSAQ [TMR-mutant-MHC-ICD], for which the “FP signal at Nef-μ1^CTD concentration beyond 50 μM” value on MBP-Nef-μ1^CTD [2] (Nef-μ1^CTD >50 μM, noise believed to be light scattering of MBP-Nef-μ1^CTD, result in words) is recorded as “increased modestly”. In data set [3], the stability of probe entry is given as “at least 20 h”.
